Laboratory results reported in US20070117743A1, “New antitumoral compounds” (priority 2003, published 2007).
Where a SMILES comes first, the peptide text is derived from it. Bridges are numbered along the chain shown (N, C = ends). [ ]: non-standard residue; d: D form. The star is where a group is joined. d(aIle) = CC[C@H](C)[C@@H](N)C(=O)O; d(aThr) = C[C@@H](O)[C@@H](N)C(=O)O; Hexanoyl(5-Me) = CC(C)CCCC(=O)*; Orn = NCCC[C@H](N)C(=O)O; Dhb = C/C=C(\N)C(=O)O

Experiments:
Format in all cases: cell-based, human
[1] = test system: IGROV-ET; test: SRB colorimetric assay of cell growth and viability, IGROV-ET; conditions: IGROV-ET, 48 hours exposure; for CC50: read-out: LC50 IGROV-ET
[2] = test system: A-549; test: SRB colorimetric assay of cell growth and viability, A-549; conditions: A-549, 48 hours exposure; for GI50: read-out: GI50 A-549; for CC50: read-out: LC50 A-549
[3] = test system: SK-MEL-28; test: SRB colorimetric assay of cell growth and viability, SK-MEL-28; conditions: MEL-28, 48 hours exposure; for CC50: read-out: LC50 MEL-28
[4] = test system: LoVo-Dox; test: SRB colorimetric assay of cell growth and viability, LoVo-Dox; conditions: LOVO-DOX, 48 hours exposure; for CC50: read-out: LC50 LOVO-DOX
In short: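 Here, cells grow drug-free for 18 h, then receive sample dilutions from 10 down to 10^−8 μg/mL for 48 h at 37° C. Protein-bound SRB is solubilized in Tris and quantified at 490 nm.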

[5] = test system: HeLa; test: SRB colorimetric assay of cell growth and viability, HeLa; conditions: HELA, 48 hours exposure; for CC50: read-out: LC50 HELA
[6] = test system: IGROV-1; test: SRB colorimetric assay of cell growth and viability, IGROV-1; conditions: IGROV; 48 hours exposure
[7] = test system: HeLa-APL; test: SRB colorimetric assay of cell growth and viability, HeLa-APL; conditions: HELA-APL, 48 hours exposure; for CC50: read-out: LC50 HELA-APL
[8] = test system: K-562; test: SRB colorimetric assay of cell growth and viability, K-562; conditions: K-562, 48 hours exposure; for CC50: read-out: LC50 K-562
[9] = test system: LNCaP; test: SRB colorimetric assay of cell growth and viability, LNCaP; conditions: LN-caP, 48 hours exposure; for CC50: read-out: LC50 LN-caP
[10] = test system: SK-BR-3; test: SRB colorimetric assay of cell growth and viability, SK-BR-3; conditions: SK-BR-3; 48 hours exposure
[11] = test system: PANC-1; test: SRB colorimetric assay of cell growth and viability, PANC-1; conditions: PANC-1, 48 hours exposure; for CC50: read-out: LC50 PANC-1
[12] = test system: DU-145; test: SRB colorimetric assay of cell growth and viability, DU-145; conditions: DU-145; 48 hours exposure
[13] = test system: HT-29; test: SRB colorimetric assay of cell growth and viability, HT-29; conditions: HT-29, 48 hours exposure; for GI50: read-out: GI50 HT-29; for CC50: read-out: LC50 HT-29

| SMILES | GI50 [1] [nM] | TGI IGROV-ET [1] [Molar] | CC50 [1] [nM] | TGI A-549 [2] [Molar] | GI50 [2] [nM] | CC50 [2] [nM] | GI50 [3] [nM] | TGI MEL-28 [3] [Molar] | CC50 [3] [nM] | GI50 [4] [nM] | TGI LOVO-DOX [4] [Molar] | CC50 [4] [nM] | GI50 [5] [nM] | TGI HELA [5] [Molar] | CC50 [5] [nM] | GI50 [6] [nM] | LC50 (concentration causing 50% net cell killing) [6] [nM] | TGI IGROV [6] [Molar] | GI50 [7] [nM] | TGI HELA-APL [7] [Molar] | also measured |
| --- | --- | --- | --- | --- | --- | --- | --- | --- | --- | --- | --- | --- | --- | --- | --- | --- | --- | --- | --- | --- | --- |
| C/C=C1\NC(=O)[C@H](Cc2ccccc2)NC(=O)[C@@H](C(C)C)NC(=O)[C@@H]([C@@H](C)CC)NC(=O)[C@H](NC(=O)[C@H](NC(=O)[C@H](CCCN)NC(=O)[C@H]2CCCN2C(=O)[C@H](NC(=O)[C@@H](NC(=O)CNC(=O)[C@H](NC(=O)CCCC(C)C)C(C)C)C(C)C)C(C)C)[C@@H](C)CC)[C@@H](C)OC(=O)[C@H](C(C)C)NC1=O [Compound 111, [Gly^12]-KF] ({Hexanoyl(5-Me)}-[dV]GV[dV][dP][Orn][d(aIle)][d(aThr)][d(aIle)][dV]F[Dhb]V; ester 8-C) | 264 | 1.00E−06 | 6970 | 2.59E−06 | 1090 | 6160 | 250 | 6.31E−07 | 2900 | 324 | 1.24E−06 | 4390 | 1260 | 2.94E−06 | 6860 | 167 | 1330 | 3.72E−07 | 355 | 1.21E−06 | CC50 [7]: 3510 nM; GI50 [8]: 144 nM; TGI K-562 [8]: 3.66E−07 Molar; CC50 [8]: 2060 nM; GI50 [9]: 400 nM; TGI LN-caP [9]: 6.97E−06 Molar; CC50 [9]: 6970 nM; GI50 [10]: 410 nM; LC50 [10]: 5940 nM; TGI SK-BR-3 [10]: 1.54E−06 Molar; GI50 [11]: 453 nM; TGI PANC-1 [11]: 1.71E−06 Molar; CC50 [11]: 5810 nM; GI50 [12]: 725 nM; LC50 (concentration causing 50% net cell kill) [12]: 6970 nM; TGI DU-145 [12]: 2.53E−06 Molar; TGI HT-29 [13]: 2.59E−06 Molar; GI50 [13]: 511 nM; CC50 [13]: 6970 nM |
| C/C=C1\NC(=O)[C@H](Cc2ccccc2)NC(=O)[C@@H](C(C)C)NC(=O)[C@@H]([C@@H](C)CC)NC(=O)[C@H](NC(=O)[C@H](NC(=O)[C@H](CCCN)NC(=O)[C@H]2CCCN2C(=O)[C@H](NC(=O)[C@@H](NC(=O)[C@H](C)NC(=O)[C@H](NC(=O)CCCC(C)C)C(C)C)C(C)C)C(C)C)[C@@H](C)CC)[C@@H](C)OC(=O)[C@H](C(C)C)NC1=O [Compound 112, [Ala^12]-KF] ({Hexanoyl(5-Me)}-[dV]AV[dV][dP][Orn][d(aIle)][d(aThr)][d(aIle)][dV]F[Dhb]V; ester 8-C) | 1510 | 3.44E−06 | 6910 | 2.87E−06 | 1450 | 5640 | 1390 | 2.74E−06 | 5430 | 1110 | 2.76E−06 | 6850 | 739 | 2.41E−06 | 6910 | 1310 | 6910 | 3.09E−06 | 1420 | 2.85E−06 | CC50 [7]: 5750 nM; GI50 [8]: 2790 nM; TGI K-562 [8]: 5.62E−06 Molar; CC50 [8]: 6910 nM; GI50 [9]: 1190 nM; TGI LN-caP [9]: 2.64E−06 Molar; CC50 [9]: 5850 nM; GI50 [10]: 3970 nM; LC50 [10]: 6910 nM; TGI SK-BR-3 [10]: 5.84E−06 Molar; GI50 [11]: 1910 nM; TGI PANC-1 [11]: 5.43E−06 Molar; CC50 [11]: 6910 nM; GI50 [12]: 1340 nM; LC50 (concentration causing 50% net cell kill) [12]: 5910 nM; TGI DU-145 [12]: 2.82E−06 Molar; TGI HT-29 [13]: 2.26E−06 Molar; GI50 [13]: 1150 nM; CC50 [13]: 4450 nM |
